# Measured values as given in US10144947B2, “Method for detecting, identifying and enumerating micro-organisms in a porous support dry-impregnated with a dehydrated reaction medium” (BIOMÉRIEUX, priority 2014, dated 2018).
# Where two headings read alike, the source gives them in different places.
# Experiments:
# [1] = system: Proteus mirabilis API 8803099; test: MIC of ciprofloxacin for the strain tested; assay type: cell-based
# [2] = system: Proteus mirabilis API 8803080; test: MIC of ciprofloxacin for the strain tested; assay type: cell-based; conditions: listed as Ci
# [3] = system: Proteus mirabilis API 9406037; test: MIC of ciprofloxacin for the strain tested; assay type: cell-based; conditions: listed as Ci
# [4] = system: Proteus vulgaris API 8803017; test: MIC of ciprofloxacin for the strain tested; assay type: cell-based; conditions: API8803017
# [5] = system: Pseudomonas aeruginosa API 9405061; test: MIC of ciprofloxacin for the strain tested; assay type: cell-based; conditions: P. aeruginosa API 9405061
# [6] = system: Pseudomonas aeruginosa API 7509005; test: MIC of ciprofloxacin for the strain tested; assay type: cell-based; conditions: P. aeruginosa API 7509005; listed as Ci
# [7] = system: Pseudomonas aeruginosa API 9410075; test: MIC of ciprofloxacin for the strain tested; assay type: cell-based; conditions: P. aeruginosa API 9410075; listed as Ci
# [8] = system: Pseudomonas aeruginosa API 9405063; test: MIC of ciprofloxacin for the strain tested; assay type: cell-based; conditions: P. aeruginosa API 9405063; listed as Ci
# [9] = system: Proteus mirabilis API 8803080; test: Growth on MH2 or ChromID CPS3 with 1.5 mg/l ciprofloxacin, agar medium or impregnated porous support; assay type: cell-based; set-up: key to growth on MH2 Agar medium + 1.5 mg/l Ci / growth on Impregnation of porous support with MH2 + 1.5 mg/l Ci / growth on ChromID CPS3 Agar medium + 1.5 mg/l Ci / growth on Impregnation of porous support with ChromID CPS3 + 1.5 mg/l Ci: ++: grow; −−: do not grow
# Experimental: (§1) To produce the agar media, a liter of water is added to the test specimen of the dry medium, i.e. 38.3 g for ChromID CPS3 and 41.57 g for the Muller Hinton 2 medium. The dry medium is then dissolved with magnetic stirring, brought to the boil then sterilized by autoclaving. […]. The whole thing is then mixed together in a Turbula®. The porous supports are then impregnated with the culture media powders as described above and sterilized by gamma radiation between 10 and 17 kGy.
# [10] = system: Proteus mirabilis API 8803099; test: as above; assay type: cell-based; set-up: key to growth on MH2 Agar medium + 1.5 mg/l Ci / growth on Impregnation of porous support with MH2 + 1.5 mg/l Ci / growth on ChromID CPS3 Agar medium + 1.5 mg/l Ci / growth on Impregnation of porous support with ChromID CPS3 + 1.5 mg/l Ci: ++: grow; −−: do not grow
# Experimental: as §1
# [11] = system: Proteus mirabilis API 9406037; test: as above; assay type: cell-based; set-up: key to growth on MH2 Agar medium + 1.5 mg/l Ci / growth on Impregnation of porous support with MH2 + 1.5 mg/l Ci / growth on ChromID CPS3 Agar medium + 1.5 mg/l Ci / growth on Impregnation of porous support with ChromID CPS3 + 1.5 mg/l Ci: ++: grow; −−: do not grow
# Experimental: as §1
# [12] = system: Proteus vulgaris API 8803017; test: as above; assay type: cell-based; set-up: key to growth on MH2 Agar medium + 1.5 mg/l Ci / growth on Impregnation of porous support with MH2 + 1.5 mg/l Ci / growth on ChromID CPS3 Agar medium + 1.5 mg/l Ci / growth on Impregnation of porous support with ChromID CPS3 + 1.5 mg/l Ci: ++: grow; −−: do not grow
# Experimental: as §1
# [13] = system: Pseudomonas aeruginosa API 7509005; test: as above; assay type: cell-based; set-up: key to growth on MH2 Agar medium + 1.5 mg/l Ci / growth on Impregnation of porous support with MH2 + 1.5 mg/l Ci / growth on ChromID CPS3 Agar medium + 1.5 mg/l Ci / growth on Impregnation of porous support with ChromID CPS3 + 1.5 mg/l Ci: ++: grow; −−: do not grow
# Experimental: as §1
# [14] = system: Pseudomonas aeruginosa API 9405061; test: as above; assay type: cell-based; set-up: key to growth on MH2 Agar medium + 1.5 mg/l Ci / growth on Impregnation of porous support with MH2 + 1.5 mg/l Ci / growth on ChromID CPS3 Agar medium + 1.5 mg/l Ci / growth on Impregnation of porous support with ChromID CPS3 + 1.5 mg/l Ci: ++: grow; −−: do not grow
# Experimental: as §1
# [15] = system: Pseudomonas aeruginosa API 9405063; test: as above; assay type: cell-based; set-up: key to growth on MH2 Agar medium + 1.5 mg/l Ci / growth on Impregnation of porous support with MH2 + 1.5 mg/l Ci / growth on ChromID CPS3 Agar medium + 1.5 mg/l Ci / growth on Impregnation of porous support with ChromID CPS3 + 1.5 mg/l Ci: ++: grow; −−: do not grow
# Experimental: as §1
# [16] = system: Pseudomonas aeruginosa API 9410075; test: as above; assay type: cell-based; set-up: key to growth on MH2 Agar medium + 1.5 mg/l Ci / growth on Impregnation of porous support with MH2 + 1.5 mg/l Ci / growth on ChromID CPS3 Agar medium + 1.5 mg/l Ci / growth on Impregnation of porous support with ChromID CPS3 + 1.5 mg/l Ci: ++: grow; −−: do not grow
# Experimental: as §1
# E. coli ATCC 25922 [17] = test: MIC of imipenem for the strain used; assay type: cell-based; conditions: Escherichia coli, ATCC25922, as stated in the conclusion
# [18] = system: Pseudomonas aeruginosa ATCC 27853; test: MIC of imipenem for the strain used; assay type: cell-based; conditions: ATCC27853, Pseudomonas aeruginosa ATCC 27853, as stated in the conclusion
# E. coli ATCC 25922 [19] = test: Growth (colony count) on ChromID CPS3 with 1 mg/l imipenem, agar medium or impregnated porous support; assay type: cell-based, Escherichia coli
# Experimental: (§2) To produce the agar media, a liter of water is added to the test specimen of the dry medium, i.e. 38.3 g for ChromID CPS3. The dry medium is then dissolved with stirring, brought to the boil then sterilized by autoclaving. After cooling the agar medium to 55° C., the imipenem sterilized by filtration is added at a concentration of 1 mg/l. To carry out impregnation according to the present invention of the dry medium Chrom ID CPS3, a test specimen of the dry medium corresponding to the manufacture of one liter of medium is taken, i.e. 26 g, to which test specimen xanthan (20 g) and imipenem […] are added. All the constituents are then mixed together in a Turbula®. The porous supports are then impregnated by the culture media powder produced as described above and sterilized by gamma radiation between 10 and 17 kGy.
# [20] = system: Pseudomonas aeruginosa ATCC 27853; test: as above; assay type: cell-based; conditions: for CFU/ml, ChromID CPS3 with 1 mg/l imipenem: starting concentration 10^3 CFU/ml; for CFU, ChromID CPS3 with 1 mg/l imipenem: starting concentration 10^5 CFU/ml
# Experimental: as §2
# [21] = ChromID CPS3 agar medium, 1.5 mg/l ciprofloxacin
# [22] = MH2 agar medium, 1.5 mg/l ciprofloxacin
# [23] = MH2 and ChromID CPS3, agar and porous support, 1.5 mg/l ciprofloxacin
# [24] = porous support impregnated with ChromID CPS3, 1.5 mg/l ciprofloxacin
# [25] = porous support impregnated with MH2, 1.5 mg/l ciprofloxacin
# [26] = all the agar or impregnated media, ciprofloxacin 1.5 g/1 [sic]
# [27] = porous support according to the invention
smiles,measurement,setting,value
"O=C(O)c1cn(C2CC2)c2cc(N3CCNCC3)c(F)cc2c1=O [ciprofloxacin, Ciprofloxacin]",MIC,[1],less than 1.5 mg/l
same,MIC,[1]; listed as Ci,0.032 µg/mL
same,MIC,[2],0.38 to 0.5 µg/mL
same,MIC,[3],8 to 12 µg/mL
same,MIC,[4],< 1.5 µg/mL
same,MIC,[5],less than 1.5 mg/l
same,MIC,[5]; listed as Ci,0.25 µg/mL
same,MIC,[6],0.25 µg/mL
same,MIC,[7],>32 µg/mL
same,MIC,[8],6 to 8 µg/mL
same,growth on ChromID CPS3 Agar medium + 1.5 mg/l Ci,[9]; [21],−−
same,growth on MH2 Agar medium + 1.5 mg/l Ci,[9]; [22],−−
same,growth on agar media and impregnated porous supports with ciprofloxacin (in words),[9]; [23],do not grow
same,growth on Impregnation of porous support with ChromID CPS3 + 1.5 mg/l Ci,[9]; [24],−−
same,growth on Impregnation of porous support with MH2 + 1.5 mg/l Ci,[9]; [25],−−
same,growth on ChromID CPS3 Agar medium + 1.5 mg/l Ci,[10]; [21],−−
same,growth on MH2 Agar medium + 1.5 mg/l Ci,[10]; [22],−−
same,growth on agar media and impregnated porous supports with ciprofloxacin (in words),[10]; [23],do not grow
same,growth on Impregnation of porous support with ChromID CPS3 + 1.5 mg/l Ci,[10]; [24],−−
same,growth on Impregnation of porous support with MH2 + 1.5 mg/l Ci,[10]; [25],−−
same,growth on ChromID CPS3 Agar medium + 1.5 mg/l Ci,[11]; [21],++
same,growth on MH2 Agar medium + 1.5 mg/l Ci,[11]; [22],++
same,growth on agar media and impregnated porous supports with ciprofloxacin (in words),[11]; [26],grow
same,growth on Impregnation of porous support with ChromID CPS3 + 1.5 mg/l Ci,[11]; [24],++
same,growth on Impregnation of porous support with MH2 + 1.5 mg/l Ci,[11]; [25],++
same,growth on ChromID CPS3 Agar medium + 1.5 mg/l Ci,[12]; [21],−−
same,growth on MH2 Agar medium + 1.5 mg/l Ci,[12]; [22],−−
same,growth on agar media and impregnated porous supports with ciprofloxacin (in words),[12]; [23],do not grow
same,growth on Impregnation of porous support with ChromID CPS3 + 1.5 mg/l Ci,[12]; [24],−−
same,growth on Impregnation of porous support with MH2 + 1.5 mg/l Ci,[12]; [25],−−
same,growth on ChromID CPS3 Agar medium + 1.5 mg/l Ci,[13]; [21],−−
same,growth on MH2 Agar medium + 1.5 mg/l Ci,[13]; [22],−−
same,growth on agar media and impregnated porous supports with ciprofloxacin (in words),[13]; [23],do not grow
same,growth on Impregnation of porous support with ChromID CPS3 + 1.5 mg/l Ci,[13]; [24],−−
same,growth on Impregnation of porous support with MH2 + 1.5 mg/l Ci,[13]; [25],−−
same,growth on ChromID CPS3 Agar medium + 1.5 mg/l Ci,[14]; [21],−−
same,growth on MH2 Agar medium + 1.5 mg/l Ci,[14]; [22],−−
same,growth on agar media and impregnated porous supports with ciprofloxacin (in words),[14]; [23],do not grow
same,growth on Impregnation of porous support with ChromID CPS3 + 1.5 mg/l Ci,[14]; [24],−−
same,growth on Impregnation of porous support with MH2 + 1.5 mg/l Ci,[14]; [25],−−
same,growth on ChromID CPS3 Agar medium + 1.5 mg/l Ci,[15]; [21],++
same,growth on MH2 Agar medium + 1.5 mg/l Ci,[15]; [22],++
same,growth on agar media and impregnated porous supports with ciprofloxacin (in words),[15]; [26],grow
same,growth on Impregnation of porous support with ChromID CPS3 + 1.5 mg/l Ci,[15]; [24],++
same,growth on Impregnation of porous support with MH2 + 1.5 mg/l Ci,[15]; [25],++
same,growth on ChromID CPS3 Agar medium + 1.5 mg/l Ci,[16]; [21],++
same,growth on MH2 Agar medium + 1.5 mg/l Ci,[16]; [22],++
same,growth on agar media and impregnated porous supports with ciprofloxacin (in words),[16]; [26],grow
same,growth on Impregnation of porous support with ChromID CPS3 + 1.5 mg/l Ci,[16]; [24],++
same,growth on Impregnation of porous support with MH2 + 1.5 mg/l Ci,[16]; [25],++
C[C@@H](O)[C@H]1C(=O)N2C(C(=O)O)=C(SCCN=CN)C[C@H]12 [imipenem],MIC,E. coli ATCC 25922 [17],0.12 µg/mL
same,MIC,[18],2 µg/mL
same,"CFU/ml, ChromID CPS3 with 1 mg/l imipenem","E. coli ATCC 25922 [19]; ChromID CPS3 agar, starting concentration 10^3 CFU/ml",0 CFU/ml
same,"CFU/ml, ChromID CPS3 with 1 mg/l imipenem","E. coli ATCC 25922 [19]; ChromID CPS3 agar, starting concentration 10^5 CFU/ml",0 CFU/ml
same,"CFU/ml, ChromID CPS3 with 1 mg/l imipenem","E. coli ATCC 25922 [19]; porous support according to the invention, starting concentration 10^3 CFU/ml",0 CFU/ml
same,"CFU/ml, ChromID CPS3 with 1 mg/l imipenem","E. coli ATCC 25922 [19]; porous support according to the invention, starting concentration 10^5 CFU/ml",0 CFU/ml
same,"CFU/ml, ChromID CPS3 with 1 mg/l imipenem",[20]; ChromID CPS3 agar,677 CFU/ml
same,"CFU, ChromID CPS3 with 1 mg/l imipenem",[20]; ChromID CPS3 agar,≥300 colonies
same,"CFU/ml, ChromID CPS3 with 1 mg/l imipenem",[20]; [27],453 CFU/ml
same,"CFU, ChromID CPS3 with 1 mg/l imipenem",[20]; [27],≥300 colonies
